Assay results as given in patent publication US20110053916A1 (Vertex Pharmaceuticals Incorporated, priority 2009, published 2011).

Assays:
[1] = test system: Mycobacterium tuberculosis H37Ra; experiment: Mycobacterium tuberculosis growth inhibition assay (microtiter dilution, resazurin reduction); type: cell-based; conditions: 7H9 broth, 9 days + 24 h resazurin, lowest concentration inhibiting resazurin reduction by >70%, several symbols in a cell = repeat determinations
Method: Compounds were screened for their ability to inhibit the growth of Mycobacterium tuberculosis H37Ra using a standard microtiter dilution method with reduction of the dye resazurin as an indicator of growth. The growth assay was carried out in standard Mycobacterium liquid growth medium, 7H9Broth (BD Biosciences, Franklin Lakes, N.J.) supplemented with 10% ADC enrichment (BD Biosciences, Franklin Lakes, N.J.). The medium was inoculate with ˜1×10^6 cells/milliliter of Mycobacterium tuberculosis H37Ra grown on a the surface of a growth medium solid medium (7H11 agar [BD Biosciences, Franklin Lakes, N.J.] supplemented with 10% OADC enrichment [BD Biosciences, Franklin Lakes, N.J.]).
Two-fold serial dilutions (either 7 or 11-step series) of test compounds in DMSO were dispensed into 96-well assay plates (sterile, black sided, clear bottom wells) in a volume of 1 microliter. One microliter of DMSO was dispensed into a control well at the end of each series. One-hundred microliters of the bacterial cell suspension in growth medium was dispensed into each test well containing a DSMO solution of compound. The assay plates were covered with a fitted lid and incubated at 37° C. in a humidified chamber for 9 days. On the ninth day 30 microliters of a 0.01% solution of resazurin (Sigma Chemical Co., St. Louis, Mo.) in distilled water was added to each well and the baseline fluorescence of resazurin was determined by measuring well fluorescence at an excitation wavelength of 492 nm and an emission wavelength of 595 nm on a Spectrafluor Plus (Tecan, Durham, N.C.) instrument. The assay plates were returned to the incubation chamber for 24 hours. After 24 hours, the fluorescence of the wells (resulting from the reduction of resazurin dye) was measured at an excitation wavelength of 492 nm and an emission wavelength of 595 nm on the Spectrafluor Plus instrument. The minimum inhibitory concentration (MIC) was called as the lowest concentration of compound that inhibited the reduction of resazurin by >70%, as compared to the DMSO (untreated) control wells. MIC values are represented as the following values: • A* <1.6 μM • A 1.6 μM<12.5 μM • B** 12.5 μM-25.0 μM • B* 25.0 μM-50.0 μM • B 50.0 μM-100.0 μM • C >100.0 μM

PknB = target: T1, PknB (Mycobacterium tuberculosis, UniProt P9WI81); experiment: biochemical; parameters: species or system M. tuberculosis; conditions: 3 nM PknB, 6 uM GarA, 3 μM ATP, 30 min, competitive tight-binding fit, several symbols in a cell = repeat determinations; for Ki: read-out: Ki Values
T1 construct: made in house
T1 sequence (P9WI81 whole entry): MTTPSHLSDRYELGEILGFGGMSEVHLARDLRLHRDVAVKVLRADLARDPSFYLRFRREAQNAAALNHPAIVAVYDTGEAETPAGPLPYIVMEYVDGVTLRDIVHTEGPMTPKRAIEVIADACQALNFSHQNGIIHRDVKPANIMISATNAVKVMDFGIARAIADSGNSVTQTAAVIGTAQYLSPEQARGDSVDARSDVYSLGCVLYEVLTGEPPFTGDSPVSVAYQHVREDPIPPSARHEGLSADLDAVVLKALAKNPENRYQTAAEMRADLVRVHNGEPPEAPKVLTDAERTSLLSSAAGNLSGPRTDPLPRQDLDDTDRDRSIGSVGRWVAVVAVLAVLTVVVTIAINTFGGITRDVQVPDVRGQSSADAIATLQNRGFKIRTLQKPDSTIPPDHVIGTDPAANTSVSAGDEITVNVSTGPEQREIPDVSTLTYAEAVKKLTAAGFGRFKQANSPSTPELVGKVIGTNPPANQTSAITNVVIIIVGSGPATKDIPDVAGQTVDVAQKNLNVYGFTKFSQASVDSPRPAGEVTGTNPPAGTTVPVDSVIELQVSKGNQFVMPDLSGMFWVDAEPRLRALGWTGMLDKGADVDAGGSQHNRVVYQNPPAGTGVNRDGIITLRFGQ

SMILES | MIC values [1] | Ki (PknB) [nM] | Ki Values (PknB)
O=C(O)c1ccc(Nc2ncc(Cl)c(Nc3cc(C4CC4)[nH]n3)n2)cc1 [Compound 77, 4-[[5-chloro-4-[(5-cyclopropyl-1H-pyrazol-3-yl)amino]-pyrimidin-2-yl]amino]benzoic acid] | B, C | 100 to 500 | 
Cc1cc(Nc2cc(C3CC3)[nH]n2)nc(-c2ccc(S(N)(=O)=O)s2)n1 [Compound 265, 5-[4-[(5-cyclopropyl-1H-pyrazol-3-yl)amino]-6-methyl-pyrimidin-2-yl]thiophene-2-sulfonamide] | B++ | 1 to 10 | 
OCc1ccc(-c2ncc(F)c(Nc3cc(C4CC4)[nH]n3)n2)s1 [Compound 26, (5-(4-(5-cyclopropyl-1H-pyrazol-3-ylamino)-5-fluoropyrimidin-2-yl)thiophen-2-yl)methanol] | B+ | 10 to 50 | 
C#Cc1cnc(-c2ccc(S(=O)(=O)NC)s2)nc1Nc1cc(C2CC2)n[nH]1 [Compound 113, 5-(4-(3-cyclopropyl-1H-pyrazol-5-ylamino)-5-ethynylpyrimidin-2-yl)-N-methylthiophene-2-sulfonamide] | B+ | 1 to 10 | 
COC(=O)NCc1ccc(-c2ncc(Cl)c(Nc3cc(C4CC4)n[nH]3)n2)s1 [Compound 287, methyl [[5-[5-chloro-4-[(5-cyclopropyl-2H-pyrazol-3-yl)amino]-pyrimidin-2-yl]-2-thienyl]methylamino]formate] | B+ | 10 to 50 | 
Nc1cc(Nc2cc(C3CC3)n[nH]2)nc(-c2ccc(S(N)(=O)=O)s2)n1 [Compound 294, 5-[4-amino-6-[(5-cyclopropyl-2H-pyrazol-3-yl)amino]-pyrimidin-2-yl]thiophene-2-sulfonamide] | B+ | 2000 to 4000 | 
C#Cc1cnc(-c2ccc(S(=O)(=O)NC(C)(C)C)s2)nc1Nc1cc(C2CC2)n[nH]1 [Compound 115, N-tert-butyl-5-(4-(5-cyclopropyl-1H-pyrazol-3-ylamino)-5-ethynylpyrimidin-2-yl)thiophene-2-sulfonamide] | B++, B+ | 10 to 50 | 
N#CCC(=O)Nc1cnc(-c2ccc(S(N)(=O)=O)s2)nc1Nc1cc(C2CC2)[nH]n1 [Compound 254, 2-cyano-N-[4-[(5-cyclopropyl-1H-pyrazol-3-yl)amino]-2-(5-sulfamoyl-2-thienyl)-pyrimidin-5-yl]acetamide] | B, C | 100 to 500 | 
C#Cc1cnc(-c2ccc([C@@H](C)O)s2)nc1Nc1cc(C2CC2)n[nH]1 [Compound 212, (R)-1-(5-(4-(3-cyclopropyl-1H-pyrazol-5-ylamino)-5-ethynylpyrimidin-2-yl)thiophen-2-yl)ethanol] | A, B++ |  | A**, A**, A*
C#Cc1c(C)nc(-c2ccc(S(N)(=O)=O)s2)nc1Nc1cc(C2CC2)[nH]n1 [Compound 267, 5-(4-(3-cyclopropyl-1H-pyrazol-5-ylamino)-5-ethynyl-6-methylpyrimidin-2-yl)thiophene-2-sulfonamide] | A+, A | 1 to 10 | 
N#CCc1ccc(-c2ncc(F)c(Nc3cc(C4CC4)[nH]n3)n2)cc1 [Compound 19, 2-(4-(4-(5-cyclopropyl-1H-pyrazol-3-ylamino)-5-fluoropyrimidin-2-yl)phenyl)acetonitrile] | B, B, C, C | 1 to 10 | 
CC(C)(C#N)c1ccc(-c2ncc(Cl)c(Nc3cc(C4CC4)[nH]n3)n2)s1 [Compound 238, 2-[5-[5-chloro-4-[(5-cyclopropyl-1H-pyrazol-3-yl)amino]-pyrimidin-2-yl]-2-thienyl]-2-methyl-propanenitrile] | B++ | 1 to 10 | 
NS(=O)(=O)c1cccc(-c2ncc(CO)c(Nc3cc(C4CC4)n[nH]3)n2)c1 [Compound 124, 3-(4-(5-cyclopropyl-1H-pyrazol-3-ylamino)-5-(hydroxymethyl)pyrimidin-2-yl)benzenesulfonamide] | A, B++ | 50 to 100 | 
OCc1cnc(-c2ccccc2)nc1Nc1cc(C2CC2)n[nH]1 [Compound 123, (4-(5-cyclopropyl-1H-pyrazol-3-ylamino)-2-phenylpyrimidin-5-yl)methanol] | B, C | 100 to 500 | 
CC(C)(C)NS(=O)(=O)c1ccc(-c2ncc(CCO)c(Nc3cc(C4CC4)[nH]n3)n2)s1 [Compound 228, 5-[4-[(5-cyclopropyl-1H-pyrazol-3-yl)amino]-5-(2-hydroxyethyl)pyrimidin-2-yl]-N-tert-butyl-thiophene-2-sulfonamide] | B+ |  | 
C#Cc1cnc(-c2cccc(S(=O)(=O)NCCO)c2)nc1Nc1cc(C2CC2)[nH]n1 [Compound 122, 3-(4-(3-Cyclopropyl-1H-pyrazol-5-ylamino)-5-ethynylpyrimidin-2-yl)-N-(2-hydroxyethyl)benzene sulfonamide] |  | 10 to 50 | 
N#CCc1ccc(-c2ncc(Cl)c(Nc3cc(C4CC4)n[nH]3)n2)s1 [Compound 143, 2-(5-(5-chloro-4-(3-cyclopropyl-1H-pyrazol-5-ylamino)pyrimidin-2-yl)thiophen-2-yl)acetonitrile] |  | 1 to 10 | 
C[C@@H]1C[C@H]1c1cc(Nc2nc(-c3ccc(S(N)(=O)=O)s3)ncc2Cl)n[nH]1 (relative stereo) [Compound 320, 5-(5-chloro-4-(5-(trans-2-methylcyclopropyl)-1H-pyrazol-3-ylamino)pyrimidin-2-yl)thiophene-2-sulfonamide] |  | 1 to 10 | 
c1cc(Nc2cc(C3CC3)[nH]n2)nc(Nc2ccc3[nH]ncc3c2)n1 [Compound 13, N4-(5-cyclopropyl-1H-pyrazol-3-yl)-N2-(1H-indazol-5-yl)pyrimidine-2,4-diamine] |  | 10 to 50 | 
CS(=O)(=O)c1ccc(-c2ncc(Cl)c(Nc3cc(C4CC4)[nH]n3)n2)cc1 [Compound 23, 5-chloro-N-(5-cyclopropyl-1H-pyrazol-3-yl)-2-(4-methylsulfonylphenyl)-pyrimidin-4-amine] |  |  | A, B**
NS(=O)(=O)c1ccc(-c2nccc(Nc3cc(C4CC4)[nH]n3)n2)s1 [Compound 50, 5-(4-(5-cyclopropyl-1H-pyrazol-3-ylamino)pyrimidin-2-yl)thiophene-2-sulfonamide] |  | 1 to 10 | 
O=[N+]([O-])c1cnc(-c2ccccc2)nc1Nc1cc(C2CC2)[nH]n1 [Compound 6, N-(5-cyclopropyl-1H-pyrazol-3-yl)-5-nitro-2-phenylpyrimidin-4-amine] |  | > 4000 | 
Clc1cnc(-c2ccccn2)nc1Nc1cc(C2CC2)[nH]n1 [Compound 182, 5-chloro-N-(5-cyclopropyl-1H-pyrazol-3-yl)-2-(pyridin-2-yl)pyrimidin-4-amine] |  | 1000 to 2000 | 
CC(C)(C)NS(=O)(=O)c1ccc(-c2cccc(Nc3cc(C4CC4)[nH]n3)n2)s1 [Compound 271, 5-[6-[(5-cyclopropyl-1H-pyrazol-3-yl)amino]-2-pyridyl]-N-tert-butyl-thiophene-2-sulfonamide] |  | 10 to 50 | 
NS(=O)(=O)c1ccc(-c2ncc(C#CCO)c(Nc3cc(C4CC4)[nH]n3)n2)s1 [Compound 217, 5-(4-(5-Cyclopropyl-1H-pyrazol-3-ylamino)-5-(3-hydroxyprop-1-ynyl)pyrimidin-2-yl)thiophene-2-sulfonamide] |  |  | A**, A*
CC(C)(C)NS(=O)(=O)c1ccc(-c2nc(CO)cc(Nc3cc(C4CC4)[nH]n3)n2)s1 [Compound 286, 5-[4-[(5-cyclopropyl-1H-pyrazol-3-yl)amino]-6-(hydroxymethyl)pyrimidin-2-yl]-N-tert-butyl-thiophene-2-sulfonamide] |  | 10 to 50 | 
C#Cc1cnc(N2CC[C@H](N)C2)nc1Nc1cc(C2CC2)n[nH]1 [Compound 187, 2-(3-aminopyrrolidin-1-yl)-N-(5-cyclopropyl-2H-pyrazol-3-yl)-5-ethynyl-pyrimidin-4-amine] |  | > 4000 | 
C/C=C/c1cnc(-c2ccccc2)nc1Nc1cc(C2CC2)[nH]n1 [Compound 11, (E)-N-(5-cyclopropyl-1H-pyrazol-3-yl)-2-phenyl-5-(prop-1-enyl)pyrimidin-4-amine] |  | 100 to 500 | 
NS(=O)(=O)c1ccc(-c2nc(Nc3cc(C4CC4)n[nH]3)c(Cl)c(C3CC3)n2)s1 [Compound 304, 5-(5-chloro-4-cyclopropyl-6-(3-cyclopropyl-1H-pyrazol-5-ylamino)pyrimidin-2-yl)thiophene-2-sulfonamide] |  | 1 to 10 | 
